From PubChem BioAssay (NCI) come the findings set out here.

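Tested at 5 concentrations; 48 h exposure; 96-well plates; endpoints linearly interpolated, else capped at highest concentration. TGI: total growth inhibition.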 Where a SMILES comes first, the peptide text is derived from it. [ ]: non-standard residue; d: D form. The star is where a group is joined. ξ: configuration not given here. ξPhe(4-NO2) = NC(Cc1ccc([N+](=O)[O-])cc1)C(=O)O; Boc = CC(C)(C)OC(=O)*; OBn = c1ccc(CO*)cc1

What all share (assay): DTP human tumour cell line panel, 48 h
The subject of experiment [1] is SF-539 CNS.
Experiment [2] concerns OVCAR-8 ovarian.
In experiment [3] the test system is MOLT-4 leukemia.
The subject of experiment [4] is SR leukemia.
Experiment [5] relates to NCI-H522 lung.
The test system of experiment [6] is CAKI-1 renal.
Experiment [7] has as its system TK-10 renal.
Experiment [8] concerns PC-3 prostate.
The test system of experiment [9] is NCI-H23 lung.
In experiment [10] the test system is UACC-257 melanoma.
Experiment [11] has as its system SK-MEL-5 melanoma.
Experiment [12] concerns SF-295 CNS.
Experiment [13] concerns NCI/ADR-RES ovarian.
The test system of experiment [14] is RPMI-8226 leukemia.
Experiment [15] has as its system HL-60(TB) leukemia.
For experiment [16], the system named is SF-268 CNS.
For experiment [17], the system named is U251 CNS.
Experiment [18] relates to OVCAR-3 ovarian.
Experiment [19] relates to SK-MEL-2 melanoma.

Consider `CC(=O)O[C@H]1C(=O)[C@@]2(C)[C@H]([C@H](OC(=O)c3ccc([N+](=O)[O-])cc3)[C@]3(O)C[C@H](OC(=O)[C@H](O)[C@@H](NC(=O)c4ccccc4)c4ccccc4)C(C)=C1C3(C)C)[C@]1(OC(C)=O)CO[C@@H]1C[C@@H]2O`, for which the TGI in experiment [1], in experiment [2], in experiment [3], in [4], in experiment [5] and in experiment [6] was above 25 µM each time. In addition, the total growth inhibition concentration (TGI) in experiment [7], in experiment [8], in experiment [9], in [10], in [11] and in experiment [12] was above 25 µM each time. The TGI in [13], in [14], in [15], in [16] and in [17] was above 25 µM in each case.
For `O=c1n(-c2ccccc2)c(=O)n2n1C1CCC2CC1`, the TGI in [1], in experiment [2], in experiment [18], in experiment [3], in experiment [19] and in experiment [4] was above 100 µM throughout. Further, the TGI in experiment [6], in experiment [7], in [8], in experiment [9], in [10] and in experiment [11] was above 100 µM throughout. Further, the TGI in experiment [12], in experiment [13], in experiment [14], in [15], in [16] and in [17] was above 100 µM in each case.
For the molecule `NC(C(F)(F)F)(C(F)(F)F)P(=O)(c1ccccc1)c1ccccc1`, the TGI in [1], in experiment [2], in [18], in [3], in [19] and in experiment [4] was above 100 µM throughout. Further, the TGI in experiment [6], in experiment [7], in [8], in experiment [9], in experiment [10] and in experiment [11] was above 100 µM throughout. Moreover, the TGI in experiment [12], in experiment [13], in experiment [14], in experiment [15], in experiment [16] and in experiment [17] was above 100 µM each time.
Consider `CC(C)(C)OC(=O)NC(Cc1ccc([N+](=O)[O-])cc1)C(=O)NCC(=O)OCc1ccccc1` (stereo not drawn) (Boc-[ξPhe(4-NO2)]-Gly-OBn), for which the TGI (commonly the concentration at which net growth stops) in experiment [2] was 52.4 µM; in experiment [18] it was 50.5 µM; in [3], 48.1 µM; in experiment [4], above 100 µM; in experiment [5], 53 µM; in experiment [6] it was 27.7 µM. Besides, the TGI in [7] was above 100 µM; in experiment [8], 49.6 µM; in [9], 47.5 µM; in experiment [11], 46.2 µM; in experiment [12], 40.2 µM; in [13], above 100 µM. In addition, the TGI is 45.9 µM in [14], above 100 µM in [15], 38.6 µM in experiment [16] and 40.6 µM in [17].
Consider `CCOC(=O)c1cc(C2CCN(CC(C)CC)C2=S)c(C(=O)/C=C(/C)N)[nH]1` (stereo not drawn), for which the TGI in experiment [1], in experiment [2], in [18], in [3], in experiment [19] and in [4] was above 50 µM each time. The concentration for total growth inhibition (TGI) in experiment [6], in [7], in [8], in experiment [9], in experiment [10] and in experiment [11] was above 50 µM throughout. For the same molecule, the TGI in experiment [12], in experiment [13], in experiment [14], in experiment [15], in experiment [16] and in [17] was above 50 µM throughout.
For the molecule `C/C(=N\NC(=O)/C(C#N)=C\c1ccc(N(CCC#N)CCC#N)cc1)c1ccccc1`, the TGI in [1], in experiment [2], in [3], in experiment [4], in experiment [5] and in [6] was above 10 µM in each case. Also, the TGI in experiment [7], in experiment [8], in [9], in experiment [10], in [11] and in [12] was above 10 µM throughout. In addition, the TGI in experiment [13], in experiment [14], in [15] and in [16] was above 10 µM each time.
